System: 168753-222-R-J1-PDC complex spheroid viability
Experiment: Anticancer human tumor 168753-222-R-J1-PDC patient-derived bladder carcinoma cell line growth inhibition [CLK]
Settings: for IC50: curve of first compound; for viability, T/C: stronger effect = lower value; active = viability on the fitted dose curve at most 10% of control; inactive = the rest
In short: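 Patient-derived tumor cells grown as complex spheroids with HUVEC endothelial cells and mesenchymal stem cells, treated with drug combinations. Concentrations descend in half-log steps from near clinical Cmax, or from 10 microM if Cmax unknown.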

[1] = second compound 0.0316 µM, first compound 0.0316 µM
[2] = second compound 0.0316 µM, first compound 0.1 µM
[3] = second compound 0.0316 µM, first compound 0.316 µM
[4] = second compound 0.0316 µM, first compound 1 µM
[5] = second compound 0.0316 µM, first compound 3.16 µM
[6] = second compound 0.0316 µM, first compound 10 µM
[7] = second compound 0.1 µM, first compound 0.0316 µM
[8] = second compound 0.1 µM, first compound 0.1 µM
[9] = second compound 0.1 µM, first compound 0.316 µM
[10] = second compound 0.1 µM, first compound 1 µM
[11] = second compound 0.1 µM, first compound 3.16 µM
[12] = second compound 0.1 µM, first compound 10 µM
[13] = second compound 0.316 µM, first compound 0.0316 µM
[14] = second compound 0.316 µM, first compound 0.1 µM
[15] = second compound 0.316 µM, first compound 0.316 µM
[16] = second compound 0.316 µM, first compound 1 µM
[17] = second compound 0.316 µM, first compound 3.16 µM
[18] = second compound 0.316 µM, first compound 10 µM
[19] = second compound 1 µM, first compound 0.0316 µM
[20] = second compound 1 µM, first compound 0.1 µM
[21] = second compound 1 µM, first compound 0.316 µM
[22] = second compound 1 µM, first compound 1 µM
[23] = second compound 1 µM, first compound 3.16 µM
[24] = second compound 1 µM, first compound 10 µM
[25] = second compound 3.16 µM, first compound 0.0316 µM
[26] = second compound 3.16 µM, first compound 0.1 µM
[27] = second compound 3.16 µM, first compound 0.316 µM
[28] = second compound 3.16 µM, first compound 1 µM
[29] = second compound 3.16 µM, first compound 3.16 µM
[30] = second compound 3.16 µM, first compound 10 µM
[31] = second compound 10 µM, first compound 0.0316 µM
[32] = second compound 10 µM, first compound 0.1 µM
[33] = second compound 10 µM, first compound 0.316 µM
[34] = second compound 10 µM, first compound 1 µM
[35] = second compound 10 µM, first compound 3.16 µM
[36] = second compound 10 µM, first compound 10 µM
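Note: viability measured after seven days of drug exposure.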
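Throughout, for viability, T/C: luminescence signal used as surrogate for viable cell amount; 100% = DMSO vehicle control wells.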

CC(C)CC(NC(=O)C(Cc1ccccc1)NC(=O)c1cnccn1)B(O)O (stereo unspecified) + CN1CCN(c2cc(C(=O)Nc3cc4cc(-c5cnn(C)c5)ccc4cn3)ccn2)CC1
1.26 nM: IC50 (second compound 0.1 µM)
2.02 nM: IC50 (second compound 0.0316 µM)
active: viability, T/C (second compound 0.0316 µM, first compound 0.00949 µM) 0.44% | viability, T/C (second compound 0.0316 µM, first compound 0.03 µM) 0.32% | viability, T/C (second compound 0.0316 µM, first compound 0.0949 µM) 0.25% | viability, T/C (second compound 0.0316 µM, first compound 0.3 µM) 1.03% | viability, T/C (second compound 0.1 µM, first compound 0.00949 µM) 0.36% | viability, T/C (second compound 0.1 µM, first compound 0.03 µM) 0.27% | viability, T/C (second compound 0.1 µM, first compound 0.0949 µM) 0.22% | viability, T/C (second compound 0.1 µM, first compound 0.3 µM) 0.23% | viability, T/C (second compound 0.316 µM, first compound 0.003 µM) 11.6% | viability, T/C (second compound 0.316 µM, first compound 0.00949 µM) 0.29% | viability, T/C (second compound 0.316 µM, first compound 0.03 µM) 0.17% | viability, T/C (second compound 0.316 µM, first compound 0.0949 µM) 0.2% | viability, T/C (second compound 0.316 µM, first compound 0.3 µM) 0.16% | viability, T/C (second compound 1 µM, first compound 0.000949 µM) 0.26% | viability, T/C (second compound 1 µM, first compound 0.003 µM) 0.22% | viability, T/C (second compound 1 µM, first compound 0.00949 µM) 0.57% | viability, T/C (second compound 1 µM, first compound 0.03 µM) 0.12% | viability, T/C (second compound 1 µM, first compound 0.0949 µM) 0.15% | viability, T/C (second compound 1 µM, first compound 0.3 µM) 0.15% | viability, T/C (second compound 3.16 µM, first compound 0.000949 µM) 1.04% | viability, T/C (second compound 3.16 µM, first compound 0.003 µM) 0.22% | viability, T/C (second compound 3.16 µM, first compound 0.00949 µM) 0.34% | viability, T/C (second compound 3.16 µM, first compound 0.03 µM) 0.09% | viability, T/C (second compound 3.16 µM, first compound 0.0949 µM) 1.55% | viability, T/C (second compound 3.16 µM, first compound 0.3 µM) 0.25% | viability, T/C (second compound 10 µM, first compound 0.000949 µM) 0.63% | viability, T/C (second compound 10 µM, first compound 0.003 µM) 0.26% | viability, T/C (second compound 10 µM, first compound 0.00949 µM) 0.23% | viability, T/C (second compound 10 µM, first compound 0.03 µM) 0.18% | viability, T/C (second compound 10 µM, first compound 0.0949 µM) 1.16% | viability, T/C (second compound 10 µM, first compound 0.3 µM) 1.04%
< 0.949 nM: IC50 (second compound 0.316 µM) | IC50 (second compound 1 µM) | IC50 (second compound 3.16 µM) | IC50 (second compound 10 µM)
inactive: viability, T/C (second compound 0.0316 µM, first compound 0.000949 µM) 110% | viability, T/C (second compound 0.0316 µM, first compound 0.003 µM) 18.9% | viability, T/C (second compound 0.1 µM, first compound 0.000949 µM) 59.4% | viability, T/C (second compound 0.1 µM, first compound 0.003 µM) 20.9% | viability, T/C (second compound 0.316 µM, first compound 0.000949 µM) 11.4%

CC1COCCN1c1cc(C2(S(C)(=N)=O)CC2)nc(-c2ccnc3[nH]ccc23)n1 (stereo unspecified) + CN1CCN(c2cc(C(=O)Nc3cc4cc(-c5cnn(C)c5)ccc4cn3)ccn2)CC1
< 31.6 nM: IC50 (second compound 0.316 µM) | IC50 (second compound 1 µM) | IC50 (second compound 3.16 µM) | IC50 (second compound 10 µM)
inactive: viability, T/C [1] 47.2% | viability, T/C [2] 74.3% | viability, T/C [3] 67.3% | viability, T/C [4] 89.2% | viability, T/C [5] 29.4% | viability, T/C [6] 26.9% | viability, T/C [7] 61.5% | viability, T/C [8] 53.8% | viability, T/C [9] 22% | viability, T/C [10] 30.5% | viability, T/C [11] 15.8% | viability, T/C [12] 15.1% | viability, T/C [13] 10.6%
active: viability, T/C [14] 9.28% | viability, T/C [15] 9% | viability, T/C [16] 7.71% | viability, T/C [17] 7.38% | viability, T/C [18] 4.64% | viability, T/C [19] 0.24% | viability, T/C [20] 0.3% | viability, T/C [21] 0.2% | viability, T/C [22] 0.19% | viability, T/C [23] 0.18% | viability, T/C [24] 0.82% | viability, T/C [25] 0.19% | viability, T/C [26] 1.51% | viability, T/C [27] 1.3% | viability, T/C [28] 0.18% | viability, T/C [29] 0.26% | viability, T/C [30] 1.69% | viability, T/C [31] 0.23% | viability, T/C [32] 0.28% | viability, T/C [33] 1.49% | viability, T/C [34] 0.34% | viability, T/C [35] 0.56% | viability, T/C [36] 1.29%
115 nM: IC50 (second compound 0.1 µM)
1750 nM: IC50 (second compound 0.0316 µM)

O=C(c1cc(Cc2n[nH]c(=O)c3ccccc23)ccc1F)N1CCN(C(=O)C2CC2)CC1 + CN1CCN(c2cc(C(=O)Nc3cc4cc(-c5cnn(C)c5)ccc4cn3)ccn2)CC1
active: viability, T/C [14] 8.85% | viability, T/C [15] 8.61% | viability, T/C [16] 7.84% | viability, T/C [17] 9.11% | viability, T/C [18] 10.2% | viability, T/C [19] 0.19% | viability, T/C [20] 0.34% | viability, T/C [21] 0.16% | viability, T/C [22] 0.63% | viability, T/C [23] 0.66% | viability, T/C [24] 0.35% | viability, T/C [25] 0.24% | viability, T/C [26] 0.12% | viability, T/C [27] 0.18% | viability, T/C [28] 0.08% | viability, T/C [29] 0.96% | viability, T/C [30] 0.39% | viability, T/C [31] 0.6% | viability, T/C [32] 0.32% | viability, T/C [33] 0.35% | viability, T/C [34] 0.18% | viability, T/C [35] 0.41% | viability, T/C [36] 1.31%
< 31.6 nM: IC50 (second compound 0.316 µM) | IC50 (second compound 1 µM) | IC50 (second compound 3.16 µM) | IC50 (second compound 10 µM)
inactive: viability, T/C [1] 73.3% | viability, T/C [2] 75.6% | viability, T/C [3] 72.5% | viability, T/C [4] 88.2% | viability, T/C [5] 73.6% | viability, T/C [6] 77.8% | viability, T/C [7] 45.6% | viability, T/C [8] 67.2% | viability, T/C [9] 52.5% | viability, T/C [10] 40.3% | viability, T/C [11] 31.5% | viability, T/C [12] 40.1% | viability, T/C [13] 10.2%
424 nM: IC50 (second compound 0.1 µM)
> 10000 nM: IC50 (second compound 0.0316 µM)

From PubChem BioAssay AID2060626 (Molecular Pharmacology Branch, DTP, NCI, 2025)
